Our source for the Activity, IC50 and inhibition values is ChEMBL document CHEMBL5579883, “Discovery of Novel Neo-Clerodane Derivatives as Potent Dual-Functional Antiosteoporosis Agents through Targeting Peroxisome Proliferator-Activated Receptor-γ” (J Med Chem, 2024).

Series [1] concerns Mus musculus. Description: Anti-osteoporosis activity in OVX-induced osteoporosis C57BL/6J mouse model assessed as prevention of bone volume/[…] volume decrease in femur at 10 mg/kg, IG administered once a day for 4 weeks by micro-CT scanning analysis. Format: functional, organism-based.
In series [2] the test system is Mus musculus. Briefly: Anti-osteoporosis activity in OVX-induced osteoporosis C57BL/6J mouse model assessed as recovery of serum estradiol level at 10 mg/kg, IG administered once a day for 4 weeks by ELISA method. The class given is functional, organism-based.
Series [3] deals with T1, Peroxisome proliferator-activated receptor gamma (Homo sapiens, UniProt P37231).
T1 sequence (P37231 whole entry): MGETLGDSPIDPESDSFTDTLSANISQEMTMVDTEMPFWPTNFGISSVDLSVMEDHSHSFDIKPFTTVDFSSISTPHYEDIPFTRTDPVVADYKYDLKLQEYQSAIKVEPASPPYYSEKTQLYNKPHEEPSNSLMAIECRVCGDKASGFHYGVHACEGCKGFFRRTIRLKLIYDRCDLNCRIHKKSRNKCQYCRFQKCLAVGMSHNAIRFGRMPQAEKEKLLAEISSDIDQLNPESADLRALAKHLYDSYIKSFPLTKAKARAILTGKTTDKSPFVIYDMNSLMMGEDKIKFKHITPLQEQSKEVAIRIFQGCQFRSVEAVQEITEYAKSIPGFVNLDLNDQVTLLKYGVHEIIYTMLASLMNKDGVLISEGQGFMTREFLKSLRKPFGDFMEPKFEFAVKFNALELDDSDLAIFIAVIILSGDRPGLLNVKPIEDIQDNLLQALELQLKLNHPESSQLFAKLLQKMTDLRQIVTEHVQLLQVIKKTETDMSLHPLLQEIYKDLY
Description: Antagonist activity at PPAR gamma LBD (203 to 476 residues) (unknown origin) expressed in HEK293T cells co-transfected with pCMV-GAL4-PPARgamma-LBD-SV40-Renilla-luciferase assessed as reduction of rosiglitazone induced PPAR-gamma activation incubated for 24 hrs by dural-luciferase reporter assay. Format: cell-based. A general note: A reporter such as luciferase makes a cellular process visible.

Series [4] relates to Mus musculus. Briefly: Anti-osteoporosis activity in C57BL/6J mouse model assessed as downregulation of OVX-induced IL-6 accumulation at 10 mg/kg, IG administered once a day for 4 weeks by ELISA method. Format: functional, organism-based.
Series [5] deals with BMDM. Description: Cytotoxicity against mouse Bone marrow macrophage at 10 uM measured after 72 hrs by MTT assay. Format: toxicity, cell-based.
Series [6] has as its system Mus musculus. Description: Anti-osteoporosis activity in OVX-induced osteoporosis C57BL/6J mouse model assessed as reduction in PINP level at 10 mg/kg, IG administered once a day for 4 weeks by ELISA method. The class given is functional, organism-based. Background: An ELISA detects its analyte on a solid surface through an enzyme-linked reagent.
In series [7] the test system is Mus musculus. Briefly: Anti-osteoporosis activity in OVX-induced osteoporosis C57BL/6J mouse model assessed as prevention of trabecular thickness decrease in femur at 10 mg/kg, IG administered once a day for 4 weeks by micro-CT scanning analysis. Format: functional, organism-based.
Series [8] concerns Mus musculus. Briefly: Anti-osteoporosis activity in OVX-induced osteoporosis C57BL/6J mouse model assessed as reduction in osteocalcin level at 10 mg/kg, IG administered once a day for 4 weeks by ELISA method. Format: functional, organism-based.
Series [9] relates to Mus musculus. Description: Anti-osteoporosis activity in OVX-induced osteoporosis C57BL/6J mouse model assessed as reduction in ACP5 level at 10 mg/kg, IG administered once a day for 4 weeks by ELISA method. The class given is functional, organism-based.
Series [10] deals with Mus musculus. Briefly: Anti-osteoporosis activity in OVX-induced osteoporosis C57BL/6J mouse model assessed as prevention of increase in bone surface area/bone volume in femur at 10 mg/kg, IG administered once a day for 4 weeks by micro-CT scanning analysis. Format: functional, organism-based.
The test system of series [11] is BMDM. Briefly: Inhibition of osteoclastogenesis in C57BL/6J mouse Bone marrow macrophage cells assessed as inhibition of RANKL-stimulated osteoclast formation measured after 6 days by tartrate-resistant acid phosphatase (TRAP) staining assay. The conditions noted are these: 144 h.
Series [12] deals with Mus musculus. Description: Anti-osteoporosis activity in C57BL/6J mouse model assessed as downregulation of OVX-induced TNF-alpha accumulation at 10 mg/kg, IG administered once a day for 4 weeks by ELISA method. Format: functional, organism-based.
Series [13] relates to BMDM. Description: cells. The conditions noted are these: Mus musculus, 144 h, read-out: INH.
Description: Inhibition of osteoclastogenesis in C57BL/6J mouse Bone marrow macrophage cells assessed as inhibition of RANKL-stimulated osteoclast formation at 10 uM measured after 6 days by tartrate-resistant acid phosphatase (TRAP) staining assay relative to control
Series [14] has as its system Mus musculus. Briefly: Anti-osteoporosis activity in OVX-induced osteoporosis C57BL/6J mouse model assessed as prevention of trabecular number decrease in femur at 10 mg/kg, IG administered once a day for 4 weeks by micro-CT scanning analysis. Format: functional, organism-based.
Series [15] concerns Mus musculus. Description: Anti-osteoporosis activity in OVX-induced osteoporosis C57BL/6J mouse model assessed as reduction in RANKL level at 10 mg/kg, IG administered once a day for 4 weeks by ELISA method. Format: functional, organism-based.
Series [16] relates to Mus musculus. Description: Anti-osteoporosis activity in OVX-induced osteoporosis C57BL/6J mouse model assessed as reduction in CTX-1 level at 10 mg/kg, IG administered once a day for 4 weeks by ELISA method. Format: functional, organism-based.

The source made the active and inactive calls. The rule behind the calls is not given here.

In the case of `CCC(C)C(=O)O[C@@H](C[C@@]1(C)[C@H](C)C[C@H](OC(C)=O)[C@]2(COC(C)=O)[C@@H]1CCC[C@]21CO1)C1=CC(=O)OC1` (stereo partly specified), the result in series [1], in series [2], in [4], in series [6], in [7] and in series [8] was Active. Moreover, the outcome in series [9], in series [10], in [12], in [14], in series [15] and in [16] was Active. Moreover, the IC50 in [3] was found to be 12.2 µM; in [11] it was 1.42 µM. The Activity result in series [5] was “Non-Toxic”. Besides, in series [13], the inhibition at 10 µM is > 50%.

One may read the IC50 as the concentration that inhibits the measured activity by half.
